The text below walks through data of PMC10647090, “Structure-Based Discovery of Mouse Trace Amine-Associated Receptor 5 Antagonists” (Journal of Chemical Information and Modeling, 2023).

The target of experiment [1] is T1, mTAAR5 (Mus musculus, UniProt Q5QD14).
T1 construct: rho tag (rhodopsin-derived tag) (N); expressed in transfected cells; host or cells: HEK293, transient transfection with lipofectamine 2000; plasmid a gift from Prof; Liberles
T1 sequence (Q5QD14 1-337): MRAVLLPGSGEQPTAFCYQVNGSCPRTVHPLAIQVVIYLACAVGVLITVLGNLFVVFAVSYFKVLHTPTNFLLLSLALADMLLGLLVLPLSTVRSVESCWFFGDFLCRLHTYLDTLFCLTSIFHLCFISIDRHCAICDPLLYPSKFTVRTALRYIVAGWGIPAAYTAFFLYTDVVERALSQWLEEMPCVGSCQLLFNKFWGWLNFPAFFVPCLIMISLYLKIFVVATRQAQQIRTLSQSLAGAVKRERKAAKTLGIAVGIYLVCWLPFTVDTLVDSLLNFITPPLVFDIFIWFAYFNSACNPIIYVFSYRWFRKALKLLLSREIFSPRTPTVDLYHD
Also on record: method as in PMID 29713997. Conditions: training set inactives; cited from earlier work.

The target in experiment [2] is T1, mTAAR5. Kind of experiment: BRET cAMP assay, agonistic activity. Conditions: HEK-293 cells transfected with EPAC cAMP BRET biosensor and mTAAR5; compared to saline. It counts as cell-based. The protocol:
(§1) TAAR5 is a receptor coupled to a stimulatory G protein, and its activation evokes cAMP production. Therefore, HEK293 cells were cotransfected with mTAAR5 and cAMP BRET biosensor. Light emission changes according to the cAMP fluctuation.[60] TMA (10 μM) was used as a reference mTAAR5 agonist to evaluate the activity of the compounds throughout the BRET-based assay and tested at 10 μM for either agonistic or antagonistic activity.
Human embryonic kidney 293cells (HEK293) were maintained in Dulbecco’s modified Eagle’s, high glucose, GlutaMAX^TM medium (Gibco^TM) supplemented with 10% 331 (v/v) of FBS and 1% penicillin/streptomycin at 37 °C in a humidified atmosphere at 95% air and 5% CO2. […]
BRET experiments were performed as described previously.[60] […] For the evaluation of the agonistic activity, the plate was read immediately after the addition of the compounds for approximately 20 min. For the evaluation of the antagonistic activity, the compounds were added 5 min before the addition of the control TAAR5 agonist, TMA, and read for approximately 20 min. […] The activity of a putative mTAAR5 antagonist was evaluated in its ability to decrease or abolish the increase of the cAMP levels induced by TMA. […] Readings were collected using Tecan Infinite instrument that allows the sequential signals integration detected in the 465 to 505 nm and 515 to 555 nm windows. […]

A further experiment concerns empty vector CTRL cells. Kind of experiment: BRET cAMP assay in cells without mTAAR5 (empty vector). It counts as cell-based, human. Conditions: HEK-293 cells transfected with EPAC cAMP BRET biosensor and empty vector; listed as TMA. The method, then: as §1
Figure S6. Effect of TMA on cAMP level is mediated by mTAAR5. HEK-293 cells were transfected with
EPAC cAMP BRET biosensor with mTAAR5 or empty vector.
calculated as mean ± SEM of 3 independent experiments.
(1 picture or pasted object on this page, not shown here)
(In general: In BRET a luciferase serves as donor, and the signal depends on an acceptor being close.)

Experiment [3] deals with T1, mTAAR5. The settings on record: cited from earlier work; for Potency pEC50 (negative log of EC50, modulating cAMP levels): mTAAR5 agonist; for Potency pIC50 (negative log of IC50, modulating cAMP levels): mTAAR5 antagonists. (In general: Changes in cAMP serve as a functional read-out for many G protein-coupled receptors.)
Experiment [4] addresses 5-HT1A. The settings on record: cited from earlier work.
Experiment [5] addresses T1, mTAAR5. Kind of experiment: BRET cAMP assay, antagonistic activity against TMA. The format is cell-based. The settings on record: HEK293 cells cotransfected with mTAAR5 and cAMP BRET (EPAC) biosensor; against TMA 10 μM; 3 independent experiments. The protocol: as §1
Human embryonic kidney 293cells (HEK293) were maintained in Dulbecco’s modified Eagle’s, high glucose, GlutaMAX^TM medium (Gibco^TM) supplemented with 10% 331 (v/v) of FBS and 1% penicillin/streptomycin at 37 °C in a humidified atmosphere at 95% air and 5% CO2. For the bioluminescence resonance energy transfer (BRET) experiments, cells were plated in 10 cm dishes 24 h prior to the transient transfection of 7 μg of rho-TAAR5 (a generous gift from Prof. Liberles) and 7 μg of EPAC using lipofectamine 2000 (Invitrogen). Five h after transfection, cells were plated in poly-D-lysinecoated 96-well microplates (well-assay white plate with clear bottom, Greiner) at a density of 70,000 cells per well in Opti-MEM (Gibco^TM) and then cultured for an additional 24 h. The serotonergic ligand library was purchased from Enzo (SCREEN-WELL Serotonergic ligand library).
BRET experiments were performed as described previously.[60] All the compounds were tested at the initial concentration of 10 μM. For the evaluation of the agonistic activity, the plate was read immediately after the addition of the compounds for approximately 20 min. For the evaluation of the antagonistic activity, the compounds were added 5 min before the addition of the control TAAR5 agonist, TMA, and read for approximately 20 min. For the ones that were active, a concentration–response assessment was performed by using different concentrations of the antagonist. TMA is the standard mTAAR5 agonist and induces an increase in cAMP levels. The activity of a putative mTAAR5 antagonist was evaluated in its ability to decrease or abolish the increase of the cAMP levels induced by TMA. The IC50 was then calculated by measuring the effect of the compounds against the effect of TMA at 10 μM. Readings were collected using Tecan Infinite instrument that allows the sequential signals integration detected in the 465 to 505 nm and 515 to 555 nm windows. EPAC BRET biosensor was used to monitor cAMP levels. BRET ratio is plotted in the graphs. Increased cAMP specifically reflects an increase in the BRET ratio. The activity of an antagonist was evaluated in terms of the ability to counteract the TMA increase in the BRET ratio. The acceptor/donor ratio was calculated as previously described.[108] […] The data are representative of at least 3 independent experiments and are expressed as means ± SEM.

For another experiment, the system named is 5-HT1E. Also on record: method as in ref 6, 11-12 (SI). The settings on record: 11-12 (SI); cited from earlier work.
Another experiment deals with 5-HT1F. Also on record: method as in ref 6, 11-12 (SI). The settings on record: 11-12 (SI); cited from earlier work.
Experiment [6] has as its system 5-HT1A. Also on record: method as in ref 13-14 (SI). Conditions: ref 13-14 (SI); cited from earlier work.
The test system of another experiment is 5-HT4. Conditions: cited from earlier work.

“Also recorded” adds a separate entry of the source. Where two headings read alike, the source gives them in different places.

Take `CCCN(CCC)[C@@H]1CCc2c(OC)cccc2[C@@H]1C` [(+)-UH 232]: the “activity at mTAAR5 in previous HTS campaigns” value (from here on “activity at mTAAR5”) on mTAAR5 [1] was “inactive”. `CN(C)C` [Compound 1, Trimethylamine]: on mTAAR5 [2], the “effect on cAMP level with mTAAR5 expressed” value is “increases cAMP levels”. The “effect on cAMP level in the absence of mTAAR5” value in the experiment with empty vector CTRL cells was “not in empty vector CTRL cells; also recorded: no cAMP fluctuation”. Moreover, the “Potency pEC50 (negative log of EC50, modulating cAMP levels)” value at mTAAR5 [3] was “pEC50: 5.49”.

In the case of `C[N+](C)(C)CCC(=O)c1cccc2ccccc12` [Compound 2, Trimethyl-(3-naphthalen-1-yl-3-oxopropyl)azanium], the “Potency pEC50 (negative log of EC50, modulating cAMP levels)” value at mTAAR5 [3] is recorded as “pEC50: 5.82”. On to `COc1ccccc1N1CCN(CC2CCC(c3ccccc3)(c3ccccc3)O2)CC1` (centres unmarked) [Compound 3, 1-[(5,5-Diphenyloxolan-2-yl)methyl]-4-(2-methoxyphenyl)piperazine], for which, at mTAAR5 [3], the “Potency pIC50 (negative log of IC50, modulating cAMP levels)” value was “pIC50: 4.36”. The “5-HT1A pKi” value at 5-HT1A [4] (ref 10 (SI)) was 7.64. In the case of `COc1ccccc1OCCNCC1COC(c2ccccc2)(c2ccccc2)O1` (centres unmarked) [Compound 4], the “Potency pIC50 (negative log of IC50, modulating cAMP levels)” value at mTAAR5 [3] is “pIC50: 3.54”. The “5-HT1A pKi” value on 5-HT1A [4] (ref 5 (SI)) is listed as 9.22. `CN1CCC(c2c[nH]c3ccc(O)cc23)CC1` [Compound 5, 3-(1-methylpiperidin-4-yl)-1H-indol-5-ol] came in with an IC50 against mTAAR5 [5] of 2.7 µM. For the same compound, the “5-HT1E pEC50” value in the experiment with 5-HT1E is 8.16. Besides, the “5-HT1F pKi” value at 5-HT1F is 8.15. At mTAAR5 [5], `CCCN(CCC)C1CCc2cccc(O)c2C1` (centres unmarked) [Compound 6, 7-(dipropylamino)-5,6,7,8-tetrahydronaphthalen-1-ol] registered an IC50 of 3.8 µM. In the experiment with 5-HT1A [6], the “5-HT1A pEC50” value is reported as 7.24. `COc1cc(N)c(Cl)cc1C(=O)OCCCN1CCCCC1` [Compound 7, 3-(piperidin-1-yl)propyl 4-amino-5-chloro-2-methoxybenzoate]: the IC50 against mTAAR5 [5] is 4.7 µM. Also, the “5-HT4 pIC50” value with 5-HT4 (ref 15-16 (SI)) is listed as 6.31. In turn, `CCN(CC)CCOC(=O)c1cc(Cl)c(N)cc1OC` [Compound 8, 2-(diethylamino)ethyl-4-amino-5-chloro-2-methoxybenzoate] displayed an IC50 against mTAAR5 [5] of 13 µM. Moreover, the “5-HT4 pIC50” value in the experiment with 5-HT4 (ref 17 (SI)) is given as 6.11. For the compound `CCN(CC)CCNC(=O)c1cc(Cl)c(N)cc1OC` [Metoclopramide], on mTAAR5 [1], the “activity at mTAAR5” value was “inactive”. Consider “N-[2-(piperidinylamino)ethyl]-4-iodobenzamide”, for which, at mTAAR5 [1], the “activity at mTAAR5” value was “inactive”.

Broadly, the IC50 is the concentration that inhibits the measured activity by half. Low readings indicate greater potency, high ones weaker potency.
